# Test results from ChEMBL document CHEMBL1649332, “Update on fusidic acid (CEM-102) tested against Neisseria gonorrhoeae and Chlamydia trachomatis” (Antimicrob Agents Chemother, 2010).
# The source made the active and inactive calls. The rule behind the calls is not given here.
# Experiments:
# Neisseria gonorrhoeae [1] = assay: Antimicrobial activity against Neisseria gonorrhoeae assessed as susceptible isolates by EUCAST method; assay type: functional
# Neisseria gonorrhoeae [2] = assay: Antimicrobial activity against Neisseria gonorrhoeae assessed as resistant isolates by EUCAST method; assay type: functional
# Neisseria gonorrhoeae [3] = assay: Antimicrobial activity against Neisseria gonorrhoeae isolates by CLSI agar dilution method; assay type: functional
# Chlamydia trachomatis = assay: Antimicrobial activity against Chlamydia trachomatis isolates; assay type: functional; conditions: for MBC / MIC90: Chlamydia trachomatis
# Neisseria gonorrhoeae [4] = assay: Antimicrobial activity against Neisseria gonorrhoeae assessed as susceptible isolates by CLSI method; assay type: functional
# Neisseria gonorrhoeae [5] = assay: Antimicrobial activity against Neisseria gonorrhoeae isolates up to 2 ug/ml by CLSI agar dilution method; assay type: functional, organism-based
# Plasma = assay: Trough plasma concentration in human; assay type: ADME, cell-free
# Neisseria gonorrhoeae [6] = assay: Antimicrobial activity against Neisseria gonorrhoeae assessed as resistant isolates by CLSI method; assay type: functional
MIC90 (Chlamydia trachomatis) [µg/mL],MIC90 (Neisseria gonorrhoeae [3]) [µg/mL],Cmin (Plasma) [µg/mL],SMILES,Activity (Neisseria gonorrhoeae [1]) [%],Activity (Neisseria gonorrhoeae [2]) [%],MIC50 (Neisseria gonorrhoeae [3]) [µg/mL],MBC90 (Chlamydia trachomatis) [µg/mL],MBC (Chlamydia trachomatis) [µg/mL],Activity (Neisseria gonorrhoeae [4]) [%],Activity (Neisseria gonorrhoeae [5]),Activity (Neisseria gonorrhoeae [6]) [%]
0.06,–,–,CC[C@H]1OC(=O)[C@H](C)[C@@H](O[C@H]2C[C@@](C)(OC)[C@@H](O)[C@H](C)O2)[C@H](C)[C@@H](O[C@@H]2O[C@H](C)C[C@H](N(C)C)[C@H]2O)[C@](C)(OC)C[C@@H](C)C(=O)[C@H](C)[C@@H](O)[C@]1(C)O [CLARITHROMYCIN],–,–,–,0.06,0.015,–,–,–
0.06,–,–,C[C@H]1c2cccc(O)c2C(=O)C2=C(O)[C@]3(O)C(=O)C(C(N)=O)=C(O)[C@@H](N(C)C)[C@@H]3[C@@H](O)[C@@H]21.O [DOXYCYCLINE],–,–,–,0.06,0.015,–,–,–
0.5,1,80,CC(=O)O[C@H]1C[C@@]2(C)[C@@H](C[C@@H](O)[C@H]3[C@@]4(C)CC[C@@H](O)[C@@H](C)[C@@H]4CC[C@@]32C)/C1=C(\CCC=C(C)C)C(=O)O [FUSIDIC ACID],–,–,0.5,0.5,0.12,–,Active,–
0.06,–,–,CC[C@H]1OC(=O)[C@H](C)C(=O)[C@H](C)[C@@H](O[C@@H]2O[C@H](C)C[C@H](N(C)C)[C@H]2O)[C@](C)(OC)C[C@@H](C)C(=O)[C@H](C)[C@H]2N(CCCCn3cnc(-c4cccnc4)c3)C(=O)O[C@]12C [TELITHROMYCIN],–,–,–,0.06,0.015,–,–,–

# Second part, the compound before the results:
SMILES,MIC90 (Chlamydia trachomatis) [µg/mL],MIC90 (Neisseria gonorrhoeae [3]) [µg/mL],Cmin (Plasma) [µg/mL],Activity (Neisseria gonorrhoeae [1]) [%],Activity (Neisseria gonorrhoeae [2]) [%],MIC50 (Neisseria gonorrhoeae [3]) [µg/mL],MBC90 (Chlamydia trachomatis) [µg/mL],MBC (Chlamydia trachomatis) [µg/mL],Activity (Neisseria gonorrhoeae [4]) [%],Activity (Neisseria gonorrhoeae [5]),Activity (Neisseria gonorrhoeae [6]) [%]
CC[C@H]1OC(=O)[C@H](C)[C@@H](O[C@H]2C[C@@](C)(OC)[C@@H](O)[C@H](C)O2)[C@H](C)[C@@H](O[C@@H]2O[C@H](C)C[C@H](N(C)C)[C@H]2O)[C@](C)(O)C[C@@H](C)CN(C)[C@H](C)[C@@H](O)[C@]1(C)O [AZITHROMYCIN],0.12,–,–,80,5.7,0.25,0.12,0.015,–,–,–
CO/N=C(\C(=O)N[C@@H]1C(=O)N2C(C(=O)O)=C(CSc3nc(=O)c(O)nn3C)CS[C@H]12)c1csc(N)n1 [CEFTRIAXONE],–,–,–,100,0,–,–,–,100,–,–
CC1(C)S[C@@H]2[C@H](NC(=O)Cc3ccccc3)C(=O)N2[C@H]1C(=O)O [PENICILLIN G],–,–,–,22.9,45.7,1,–,–,22.9,–,45.7
CN(C)[C@@H]1C(O)=C(C(N)=O)C(=O)[C@@]2(O)C(O)=C3C(=O)c4c(O)cccc4[C@@](C)(O)[C@H]3C[C@@H]12 [TETRACYCLINE],–,–,–,45.7,34.3,1,–,–,22.9,–,34.3
